Results taken from patent publication US5919756A, “Amides” (Eli Lilly and Company, priority 1997, dated 1999).
In brackets after ≈: the same amount, converted by molar mass.

Tests used:
Type in all cases: cell-based
[1] = tested on: Streptococcus pneumoniae P1; experiment: Broth micro-dilution MIC, S PN P1; conditions: unit assumed
Procedure: (§1) The antibacterial efficacy of the present compounds is illustrated in TABLE 2. The minimal inhibitory concentrations (MICs) were determined using a standard broth micro-dilution assay.

[2] = tested on: Staphylococcus aureus 447; experiment: Broth micro-dilution MIC, SA 447; conditions: unit assumed
Procedure: as §1

[3] = tested on: Enterococcus, Sensitive (4-6 isolates); experiment: Enterococcus screen, broth micro-dilution MIC, sensitive isolates; parameters: unit not given here; conditions: mean of 4-6 isolates
Procedure: as §1

[4] = tested on: Staphylococcus aureus 446; experiment: Broth micro-dilution MIC, SA 446; conditions: unit assumed
Procedure: as §1

[5] = tested on: Staphylococcus epidermis 270; experiment: Broth micro-dilution MIC, SE 270; conditions: unit assumed
Procedure: as §1

[6] = tested on: Staphylococcus haemolyticus 415; experiment: Broth micro-dilution MIC, SH 415; conditions: unit assumed
Procedure: as §1

[7] = tested on: Streptococcus pyogenes 203; experiment: Broth micro-dilution MIC, S PY 203; conditions: unit assumed
Procedure: as §1

[8] = tested on: Staphylococcus haemolyticus 105; experiment: Broth micro-dilution MIC, SH 105; conditions: unit assumed
Procedure: as §1

[9] = tested on: Staphylococcus aureus 489; experiment: Broth micro-dilution MIC, SA 489; conditions: unit assumed
Procedure: as §1

[10] = tested on: Enterococcus, Resistant (4-6 isolates); experiment: Enterococcus screen, broth micro-dilution MIC, resistant isolates; parameters: unit not given here; conditions: mean of 4-6 isolates
Procedure: as §1

Compound	MIC, S PN P1 [1] [µg/mL]	MIC, SA 447 [2] [µg/mL]	Minimum Inhibitory Concentrations (MICs), Mean Values of 4-6 Isolates, Sensitive [3]	MIC, SA 446 [4] [µg/mL]	MIC, SE270 [5] [µg/mL]	MIC, SH415 [6] [µg/mL]	MIC, S PY 203 [7] [µg/mL]	MIC, SH105 [8] [µg/mL]	MIC, SA 489 [9] [µg/mL]	Minimum Inhibitory Concentrations (MICs), Mean Values of 4-6 Isolates, Resistant [10]
CNC(CC(C)C)C(=O)NC1C(=O)NC(CC(N)=O)C(=O)NC2C(=O)NC3C(=O)NC(C(=O)NC(C(=O)NCCCc4ccccc4)c4cc(O)cc(O)c4-c4cc3ccc4O)C(OC3CC(C)(N)C(O)C(C)O3)c3ccc(c(Cl)c3)Oc3cc2cc(c3OC2OC(CO)C(O)C(O)C2OC2CC(C)(N)C(O)C(C)O2)Oc2ccc(cc2Cl)C1O (centres unmarked) [Example 20, A82846B, (3-phenyl-n-propyl) amide]	≤ 0.06	≤ 0.06	0.22	0.125 (≈ 0.0731 µM)	≤ 0.06	0.25 (≈ 0.146 µM)	≤ 0.06	0.125 (≈ 0.0731 µM)	≤ 0.06	11
N^4 -(4-phenylbenzyl)A82846B, butylamide, trifluoroacetate salt [Example 3]	≤ 0.06	2	0.11	2	1	2	≤ 0.06	0.5	4	2.4
N^4 -(4-phenylbenzyl)A82846B, methylamide, trifluoroacetate salt [Example 2]	≤ 0.06	0.5	0.041	1	≤ 0.06	0.25	≤ 0.06	0.125	1	1.19
N^4 -(4-phenylbenzy1)A82846B, DL-(2-furanon-3-yl)amide [Example 7]	≤ 0.06	2	0.048	2	0.5	1	≤ 0.06	0.5	1	1.7
CNC(CC(C)C)C(=O)NC1C(=O)NC(CC(N)=O)C(=O)NC2C(=O)NC3C(=O)NC(C(=O)NC(C(=O)NCCCN(C)C)c4cc(O)cc(O)c4-c4cc3ccc4O)C(OC3CC(C)(N)C(O)C(C)O3)c3ccc(c(Cl)c3)Oc3cc2cc(c3OC2OC(CO)C(O)C(O)C2OC2CC(C)(N)C(O)C(C)O2)Oc2ccc(cc2Cl)C1O.O=C(O)C(F)(F)F (centres unmarked) [Example 23, A82846B, (3-(dimethylamino)-n-propyl)amide, trifluoroacetate salt]	≤ 0.06	0.125	0.44	0.125	≤ 0.06	≤ 0.06	≤ 0.06	≤ 0.06	≤ 0.06	> 128
